Literature values in patent publication US20240315993A1, “ANTIPARASITIC COMPOUNDS” (Intervet Inc., priority 2021, published 2024).

Columns and labels:
[1] = system: Beet Armyworm (Spodoptera exigua); conditions: Beet Armyworm second instar larvae, 128-well diet tray, 50 μg/cm^2, five to seven days, average of eight wells; cited from earlier work
[2] = system: Yellow Fever Mosquito (Aedes aegypti); conditions: Aedes aegypti larvae about 1 day old, 96-well plate, scored after 3 days; cited from earlier work
[3] = system: Cabbage Looper (Trichoplusia ni); conditions: Cabbage Looper second instar larvae, 128-well diet tray, 50 μg/cm^2, five to seven days, average of eight wells; cited from earlier work

Row | SMILES | Test A: Bioassay on BAW, percent mortality rating [1] | Test C: Bioassay on Yellow Fever Mosquito, mortality rating [2] | Test B: Bioassay on CL, percent mortality rating [3]
1 | Cc1ccc(-c2csc(NC(=O)c3cc(NC(=O)[C@H]4[C@H](c5cc(Cl)cc(Cl)c5)C4(Cl)Cl)ccc3Cl)n2)cc1 [c24] | A (50-100) | D (No activity noticed in this bioassay) | A (50-100)
2 | O=C(Nc1c[nH]c(=O)[nH]c1=O)c1cc(NC(=O)[C@H]2[C@H](c3cc(Cl)cc(Cl)c3)C2(Cl)Cl)ccc1Cl [c25] | A (50-100) | B (More than 0 - Less than 80) | A (50-100)
3 | O=C(Nc1nc2ccccc2o1)c1cc(NC(=O)C2C(c3cc(Cl)cc(Cl)c3)C2(Cl)Cl)ccc1Cl (stereo not drawn) [c26] | A (50-100) | A (80-100) | A (50-100)
4 | O=C(Nc1ccc2ncoc2c1)c1cc(NC(=O)C2C(c3cc(Cl)cc(Cl)c3)C2(Cl)Cl)ccc1Cl (stereo not drawn) [c27] | A (50-100) | A (80-100) | A (50-100)
5 | O=C(Nc1ccc2sccc2c1)c1cc(NC(=O)C2C(c3cc(Cl)cc(Cl)c3)C2(Cl)Cl)ccc1Cl (stereo not drawn) [c28] | A (50-100) | A (80-100) | A (50-100)
6 | Nc1cccc(NC(=O)c2cc(NC(=O)C3C(c4cc(Cl)cc(Cl)c4)C3(Cl)Cl)ccc2Cl)c1 (stereo not drawn) [c29] | A (50-100) | A (80-100) | A (50-100)
7 | CNc1cccc(NC(=O)c2cc(NC(=O)C3C(c4cc(Cl)cc(Cl)c4)C3(Cl)Cl)ccc2Cl)c1 (stereo not drawn) [c30] | A (50-100) | A (80-100) | A (50-100)
8 | Cc1ccc(NC(=O)c2cc(NC(=O)C3C(c4cc(Cl)cc(Cl)c4)C3(Cl)Cl)ccc2Cl)cc1N (stereo not drawn) [c31] | A (50-100) | B (More than 0 - Less than 80) | A (50-100)
9 | Cc1cc2cc(NC(=O)c3cc(NC(=O)C4C(c5cc(Cl)cc(Cl)c5)C4(Cl)Cl)ccc3Cl)ccc2[nH]1 (stereo not drawn) [c32] | A (50-100) | A (80-100) | A (50-100)
10 | Cc1nc2cc(NC(=O)c3cc(NC(=O)C4C(c5cc(Cl)cc(Cl)c5)C4(Cl)Cl)ccc3Cl)ccc2s1 (stereo not drawn) [c33] | A (50-100) | A (80-100) | A (50-100)
11 | O=C(Nc1ccc2[nH]cnc2c1)c1cc(NC(=O)C2C(c3cc(Cl)cc(Cl)c3)C2(Cl)Cl)ccc1Cl (stereo not drawn) [c34] | A (50-100) | B (More than 0 - Less than 80) | A (50-100)
12 | CNc1ccc(NC(=O)c2cc(NC(=O)C3C(c4cc(Cl)cc(Cl)c4)C3(Cl)Cl)ccc2Cl)c(C)c1 (stereo not drawn) [c35] | A (50-100) | A (80-100) | A (50-100)
13 | Cn1ccc2cc(NC(=O)c3cc(NC(=O)C4C(c5cc(Cl)cc(Cl)c5)C4(Cl)Cl)ccc3Cl)ccc21 (stereo not drawn) [c36] | A (50-100) | A (80-100) | A (50-100)
14 | O=C(Nc1ccc2c(ccn2Cc2ccccc2)c1)c1cc(NC(=O)C2C(c3cc(Cl)cc(Cl)c3)C2(Cl)Cl)ccc1Cl (stereo not drawn) [c37] | A (50-100) | D (No activity noticed in this bioassay) | A (50-100)
15 | CN1C(=O)Cc2cc(NC(=O)c3cc(NC(=O)C4C(c5cc(Cl)cc(Cl)c5)C4(Cl)Cl)ccc3Cl)ccc21 (stereo not drawn) [c38] | A (50-100) | A (80-100) | A (50-100)
16 | Cn1nc(NC(=O)c2cc(NC(=O)C3C(c4cc(Cl)cc(Cl)c4)C3(Cl)Cl)ccc2Cl)c2cc(C(F)(F)F)ccc21 (stereo not drawn) [c39] | A (50-100) | A (80-100) | A (50-100)
17 | O=C(Nc1ccc(-c2nccs2)cc1)c1cc(NC(=O)C2C(c3cc(Cl)cc(Cl)c3)C2(Cl)Cl)ccc1Cl (stereo not drawn) [c41] | A (50-100) | A (80-100) | A (50-100)

Row | SMILES | Test A: Bioassay on BAW, percent mortality rating [1] | Test C: Bioassay on Yellow Fever Mosquito, mortality rating [2] | Test B: Bioassay on CL, percent mortality rating [3]
18 | Cc1cc(N(C)C(=O)OC(C)(C)C)ccc1NC(=O)c1cc(NC(=O)C2C(c3ccc(F)c(Cl)c3)C2(Cl)Cl)ccc1Cl (stereo not drawn) [c42] | A (50-100) | D (No activity noticed in this bioassay) | D (No activity noticed in this bioassay)
19 | Cc1cc(N(C)C(=O)OC(C)(C)C)ccc1N(C)C(=O)c1cc(NC(=O)C2C(c3cc(Cl)cc(Cl)c3)C2(Cl)Cl)ccc1Cl (stereo not drawn) [c43] | A (50-100) | D (No activity noticed in this bioassay) | A (50-100)
20 | Cc1cc(N(C)C(=O)OC(C)(C)C)ccc1N(C)C(=O)c1cc(NC(=O)C2C(c3cc(Cl)c(Cl)c(Cl)c3)C2(Cl)Cl)ccc1Cl (stereo not drawn) [c44] | A (50-100) | D (No activity noticed in this bioassay) | D (No activity noticed in this bioassay)
21 | O=C(Nc1nc(-c2cccs2)cs1)c1cc(NC(=O)[C@H]2[C@H](c3cc(Cl)cc(Cl)c3)C2(Cl)Cl)ccc1Cl [c45] | A (50-100) | A (80-100) | A (50-100)
22 | O=C(Nc1ccc2[nH]c(C(F)(F)F)cc2c1)c1cc(NC(=O)C2C(c3cc(Cl)cc(Cl)c3)C2(Cl)Cl)ccc1Cl (stereo not drawn) [c46] | A (50-100) | D (No activity noticed in this bioassay) | A (50-100)
23 | CNc1ccc(NC(=O)c2cc(NC(=O)C3C(c4cc(Cl)c(Cl)c(Cl)c4)C3(Cl)Cl)ccc2Cl)c(C)c1 (stereo not drawn) [c47] | A (50-100) | A (80-100) | A (50-100)
24 | CNc1ccc(N(C)C(=O)c2cc(NC(=O)C3C(c4cc(Cl)cc(Cl)c4)C3(Cl)Cl)ccc2Cl)c(C)c1 (stereo not drawn) [c48] | A (50-100) | D (No activity noticed in this bioassay) | A (50-100)
25 | CNc1ccc(N(C)C(=O)c2cc(NC(=O)C3C(c4cc(Cl)c(Cl)c(Cl)c4)C3(Cl)Cl)ccc2Cl)c(C)c1 (stereo not drawn) [c49] | A (50-100) | A (80-100) | A (50-100)
26 | N#Cc1cc([N+](=O)[O-])ccc1NC(=O)c1cc(NC(=O)C2C(c3cc(Cl)cc(Cl)c3)C2(Cl)Cl)ccc1Cl (stereo not drawn) [c51] | A (50-100) | A (80-100) | A (50-100)
27 | Cc1ccc(NC(=O)c2cc(NC(=O)C3C(c4cc(Cl)cc(Cl)c4)C3(Cl)Cl)ccc2Cl)c([N+](=O)[O-])c1 (stereo not drawn) [c52] | A (50-100) | A (80-100) | A (50-100)
28 | N#Cc1cc(C(F)(F)F)ccc1NC(=O)c1cc(NC(=O)C2C(c3cc(Cl)cc(Cl)c3)C2(Cl)Cl)ccc1Cl (stereo not drawn) [c53] | A (50-100) | A (80-100) | A (50-100)
29 | N#Cc1ccc(NC(=O)c2cc(NC(=O)C3C(c4cc(Cl)cc(Cl)c4)C3(Cl)Cl)ccc2Cl)cc1C(F)(F)F (stereo not drawn) [c54] | A (50-100) | A (80-100) | A (50-100)
30 | O=C(Nc1ccc2c(c1)C(=O)NC2=O)c1cc(NC(=O)C2C(c3cc(Cl)cc(Cl)c3)C2(Cl)Cl)ccc1Cl (stereo not drawn) [c55] | A (50-100) | D (No activity noticed in this bioassay) | A (50-100)
31 | N#Cc1cc(N)ccc1NC(=O)c1cc(NC(=O)C2C(c3cc(Cl)cc(Cl)c3)C2(Cl)Cl)ccc1Cl (stereo not drawn) [c56] | A (50-100) | A (80-100) | A (50-100)
32 | CC(=O)N(C(C)=O)c1ccc(NC(=O)c2cc(NC(=O)C3C(c4cc(Cl)cc(Cl)c4)C3(Cl)Cl)ccc2Cl)c(C#N)c1 (stereo not drawn) [c57] | A (50-100) | A (80-100) | A (50-100)
33 | CNc1ccc(NC(=O)c2cc(NC(=O)C3C(c4cc(Cl)cc(Cl)c4)C3(Cl)Cl)ccc2Cl)c(C#N)c1 (stereo not drawn) [c58] | A (50-100) | A (80-100) | A (50-100)
34 | Cc1cc(N)ccc1NC(=O)c1cc(NC(=O)C2C(c3cc(Cl)cc(Cl)c3)C2(Cl)Cl)ccc1Cl (stereo not drawn) [c59] | A (50-100) | A (80-100) | A (50-100)
